Results from patent US8541474B2 (Hanall Biopharma Co., Ltd., priority 2007, dated 2013).
Structures can show the parent of a compound that is named as a salt.

Legend:
Human being = conditions: Oral; cited from earlier work
Mouse = conditions: Intraperitoneal; cited from earlier work
[1] = Measurement of hygroscopicity; type: physicochemical; conditions: 95% RH, 25° C.
[2] = system: diabetes mellitus induced experimental animal; experiment: Effect of drop in blood glucose level in diabetes mellitus induced (alloxan) rats; type: in vivo; conditions: for glucose concentration in blood: 0.05 mg as metformin, peritoneally
From the text: This test supports the effect of the present invention.

male ICR mice = experiment: Test of drop in blood glucose after meal (OGTT with sucrose load); type: in vivo; conditions: for effect of drop in blood glucose compared to G8 (excipient control): 20 minutes after administration of sucrose
[3] = 100 mg/kg oral, 0 min after sucrose 2 g/kg
[4] = 100 mg/kg oral, 40 min after sucrose 2 g/kg
[5] = 100 mg/kg oral, 60 min after sucrose 2 g/kg
[6] = 100 mg/kg oral, 90 min after sucrose 2 g/kg
[7] = 100 mg/kg oral, 120 min after sucrose 2 g/kg
[8] = 100 mg/kg oral, 240 min after sucrose 2 g/kg
[9] = 200 mg/kg oral, 0 min after sucrose 2 g/kg
[10] = 200 mg/kg oral, 20 min after sucrose 2 g/kg
[11] = 200 mg/kg oral, 40 min after sucrose 2 g/kg
[12] = 200 mg/kg oral, 60 min after sucrose 2 g/kg
[13] = 200 mg/kg oral, 90 min after sucrose 2 g/kg
[14] = 200 mg/kg oral, 120 min after sucrose 2 g/kg
[15] = 200 mg/kg oral, 240 min after sucrose 2 g/kg
[16] = 400 mg/kg oral, 0 min after sucrose 2 g/kg
[17] = 400 mg/kg oral, 20 min after sucrose 2 g/kg
[18] = 400 mg/kg oral, 40 min after sucrose 2 g/kg
[19] = 400 mg/kg oral, 60 min after sucrose 2 g/kg
[20] = 400 mg/kg oral, 90 min after sucrose 2 g/kg
[21] = 400 mg/kg oral, 120 min after sucrose 2 g/kg
[22] = 400 mg/kg oral, 240 min after sucrose 2 g/kg

For `CC(=O)O` [Acetic acid], the “Dose (TDLo)” value (Human being) is listed as 1,470 μg/kg.
In the case of `Cl` [Hydrochloric acid], the “Dose (LD50)” value (Mouse) is listed as 40 mg/kg.
For `CC(=O)O.CN(C)C(=N)NC(=N)N` [Metformin acetate, N,N-dimethyl imidodicarbonimidic diamide acetate], the “hygroscopicity compared with metformin hydrochloride” value [1] was “lower than that of the metformin hydrochloride”, the Hygroscopicity ([1]; 1 day) was 0.35% and the Hygroscopicity ([1]; 2 days) was 0.93%. The Hygroscopicity ([1]; 3 days) was 1.37%, the Hygroscopicity ([1]; 6 days) was 11.21% and the Hygroscopicity ([1]; 9 days) was 23.32%. The “decrease of glucose concentration versus control group” value ([2]; 10 hours after administration) was “about 7.5 mmol/L”, the “effect of drop in blood glucose compared with metformin hydrochloride” value ([2]; alloxan rats) was “more excellent than that of metformin hydrochloride” and the “glucose concentration in blood” value ([2]; alloxan rats, 0 hours) was 13.8 mmol/L. The “glucose concentration in blood” value ([2]; alloxan rats, 2 hours) was 6.4 mmol/L, the “glucose concentration in blood” value ([2]; alloxan rats, 4 hours) was 7.5 mmol/L and the “glucose concentration in blood” value ([2]; alloxan rats, 6 hours) was 6.8 mmol/L. The “glucose concentration in blood” value ([2]; alloxan rats, 8 hours) was 5.9 mmol/L, the “glucose concentration in blood” value ([2]; alloxan rats, 10 hours) was 6.9 mmol/L and the “effect of drop in blood glucose” value (male ICR mice; 100 mg/kg (G2), 240 minutes) was “effect of drop in blood glucose could be observed”. For the same compound, the “glucose concentration in blood” value (male ICR mice; [3]) was 101.63 ± 4.94 mg/dL, the “glucose concentration in blood” value (male ICR mice; [4]) was 212.00 ± 15.68 mg/dL and the “glucose concentration in blood” value (male ICR mice; [5]) was 170.75 ± 17.38 mg/dL. The “glucose concentration in blood” value (male ICR mice; [6]) was 134.50 ± 15.64 mg/dL, the “glucose concentration in blood” value (male ICR mice; [7]) was 106.63 ± 10.44 mg/dL and the “glucose concentration in blood” value (male ICR mice; [8]) was 63.63 ± 4.94 mg/dL. For the same compound, the “effect of drop in blood glucose” value (male ICR mice; 200 mg/kg (G3), 120 minutes) was “effect of drop in blood glucose could be observed”, the “effect of drop in blood glucose” value (male ICR mice; 200 mg/kg (G3), 240 minutes) was “effect of drop in blood glucose could be observed” and the “effect of drop in blood glucose compared to G8 (excipient control)” value (“effect … compared to G8 (excipient control)” for short) (male ICR mice; 200 mg/kg (G3, G6)) was “effect of drop in blood glucose could be observed”. For the same compound, the “glucose concentration in blood” value (male ICR mice; [9]) was 101.63 ± 4.58 mg/dL, the “glucose concentration in blood” value (male ICR mice; [10]) was 213.13 ± 11.36 mg/dL and the “glucose concentration in blood” value (male ICR mice; [11]) was 201.00 ± 21.78 mg/dL. For the same compound, the “glucose concentration in blood” value (male ICR mice; [12]) was 165.75 ± 15.91 mg/dL, the “glucose concentration in blood” value (male ICR mice; [13]) was 129.63 ± 8.08 mg/dL and the “glucose concentration in blood” value (male ICR mice; [14]) was 106.38 ± 4.07 mg/dL. The “glucose concentration in blood” value (male ICR mice; [15]) was 80.00 ± 3.73 mg/dL, the “effect … compared to G8 (excipient control)” value (male ICR mice; 400 mg/kg (G4, G7)) was “effect of drop in blood glucose could be observed” and the “glucose concentration in blood” value (male ICR mice; [16]) was 104.13 ± 6.53 mg/dL. The “glucose concentration in blood” value (male ICR mice; [17]) was 190.25 ± 16.05 mg/dL, the “glucose concentration in blood” value (male ICR mice; [18]) was 169.63 ± 21.19 mg/dL and the “glucose concentration in blood” value (male ICR mice; [19]) was 141.50 ± 18.24 mg/dL. The “glucose concentration in blood” value (male ICR mice; [20]) was 106.38 ± 13.75 mg/dL, the “glucose concentration in blood” value (male ICR mice; [21]) was 86.25 ± 11.25 mg/dL and the “glucose concentration in blood” value (male ICR mice; [22]) was 69.25 ± 7.96 mg/dL. For the same compound, the “effect of drop in blood glucose compared with metformin hydrochloride” value (male ICR mice; 200 and 400 mg/kg dosage group, 20 to 60 minutes after administration of sucrose) was “higher effect of drop in blood glucose than that of the metformin hydrochloride” and the “effect of drop in blood glucose after meal compared with metformin hydrochloride” value (male ICR mice; overall inference from Table 11) was “more excellent than that of the metformin hydrochloride”.
Compound `CN(C)C(=N)N=C(N)N` [Metformin hydrochloride, metformin hydrochloride, reference compound] has a Hygroscopicity ([1]; 1 day) of 6.29%, a Hygroscopicity ([1]; 2 days) of 11.86% and a Hygroscopicity ([1]; 3 days) of 23.3%. The Hygroscopicity ([1]; 6 days) was 60.33%, the Hygroscopicity ([1]; 9 days) was 68.78% and the “glucose concentration in blood” value ([2]; alloxan rats, 0 hours) was 13.8 mmol/L. The “glucose concentration in blood” value ([2]; alloxan rats, 2 hours) was 7.8 mmol/L, the “glucose concentration in blood” value ([2]; alloxan rats, 4 hours) was 6.4 mmol/L and the “glucose concentration in blood” value ([2]; alloxan rats, 6 hours) was 8.6 mmol/L. The “glucose concentration in blood” value ([2]; alloxan rats, 8 hours) was 7.9 mmol/L, the “glucose concentration in blood” value ([2]; alloxan rats, 10 hours) was 9.4 mmol/L and the “glucose concentration in blood” value (male ICR mice; [3]) was 104.00 ± 6.53 mg/dL. The “glucose concentration in blood” value (male ICR mice; 100 mg/kg oral, 20 min after sucrose 2 g/kg) was 246.00 ± 16.70 mg/dL, the “glucose concentration in blood” value (male ICR mice; [4]) was 194.38 ± 8.02 mg/dL and the “glucose concentration in blood” value (male ICR mice; [5]) was 151.50 ± 5.45 mg/dL. For the same compound, the “glucose concentration in blood” value (male ICR mice; [6]) was 122.38 ± 4.69 mg/dL, the “glucose concentration in blood” value (male ICR mice; [7]) was 111.75 ± 6.45 mg/dL and the “glucose concentration in blood” value (male ICR mice; [8]) was 83.63 ± 3.49 mg/dL. For the same compound, the “effect … compared to G8 (excipient control)” value (male ICR mice; 200 mg/kg (G3, G6)) was “effect of drop in blood glucose could be observed”, the “glucose concentration in blood” value (male ICR mice; [9]) was 107.13 ± 2.84 mg/dL and the “glucose concentration in blood” value (male ICR mice; [10]) was 227.50 ± 20.57 mg/dL. For the same compound, the “glucose concentration in blood” value (male ICR mice; [11]) was 187.25 ± 15.16 mg/dL, the “glucose concentration in blood” value (male ICR mice; [12]) was 147.25 ± 9.89 mg/dL and the “glucose concentration in blood” value (male ICR mice; [13]) was 121.25 ± 8.15 mg/dL. For the same compound, the “glucose concentration in blood” value (male ICR mice; [14]) was 106.75 ± 5.65 mg/dL, the “glucose concentration in blood” value (male ICR mice; [15]) was 87.13 ± 4.50 mg/dL and the “effect … compared to G8 (excipient control)” value (male ICR mice; 400 mg/kg (G4, G7)) was “effect of drop in blood glucose could be observed”. The “glucose concentration in blood” value (male ICR mice; [16]) was 104.75 ± 3.98 mg/dL, the “glucose concentration in blood” value (male ICR mice; [17]) was 187.38 ± 10.32 mg/dL and the “glucose concentration in blood” value (male ICR mice; [18]) was 167.63 ± 7.04 mg/dL. The “glucose concentration in blood” value (male ICR mice; [19]) was 135.63 ± 5.53 mg/dL, the “glucose concentration in blood” value (male ICR mice; [20]) was 110.50 ± 4.78 mg/dL and the “glucose concentration in blood” value (male ICR mice; [21]) was 87.88 ± 9.90 mg/dL. The “glucose concentration in blood” value (male ICR mice; [22]) was 64.38 ± 7.69 mg/dL.
